Bridge positions count the residues as written; N and C are the ends. Peptide text beside a SMILES is read from it.

Data on two compounds can be found in patent publication US6911524B1 (priority 1999, dated 2005).

What all share (assay type): cell-based
One assay relates to Perkinsus marinus. The experiment in a line: Antiprotozoan activity, parasite viability. The following applies: Perkinsus marinus in seawater, 1 hour at room temperature, viability by acridine orange / ethidium bromide staining. On the procedure:
The oyster-parasite protozoan Perkinsus marinus is cultured in DMEM medium (GIBCO), according to the protocol described by GAUTHIER and VASTA [J. Invertebr. Pathol., 66, 156-168, (1995)].
10 μM of purified peptide are added to 4×10^4 P. marinus, in seawater (final volume 20 μl) . The mixture is incubated for 1 hour at room temperature. The viability of the parasites is estimated by staining with acridine orange and with ethidium bromide, as described by MORVAN et al. [J. Invertebr. Pathol., 69, 177-82 (1997)]. The maximum viability is evaluated, as a positive control, in samples to which the peptide has not been added.

Another assay concerns Escherichia coli D31. The experiment in a line: Antibacterial assay, MBC determination. The following applies: summary of table 1. As to the method: (§1) The minimum […] concentration (MBC) of the peptides was determined according to the protocol described by HANCOCK et al.
(§2) A series of successive doubling dilutions of the peptides, in an aqueous solution containing 0.01% of acetic acid and 0.2% of bovine serum albumin (BSA), is prepared.
(§3) 10 μl aliquots of each dilution are incubated in sterile 96-well polypropylene microtitration plates, in the presence of 100 μl of bacterial suspension at a starting optical density of A600=0.001, in MUELLER HINTON BROTH liquid medium. The incubation is carried out for 18 h at 37° C. with stirring, except in the case of the marine bacteria, for which the incubation is carried out 25° C. The MBC is determined by plating out, onto solid MUELLER HINTON AGAR medium, the content of the wells corresponding to the first 3 dilutions for which no bacterial growth is observed, and incubating at 37° C. for 18 hours. The lowest concentration of peptide which prevents any residual formation of colonies corresponds to the MBC.

For the next assay, the system named is Micrococcus luteus. The experiment in a line: Antibacterial assay, MBC determination. The following applies: summary of table 1. As to the method:
as §1, §2, §3

In another assay the test system is Fusarium oxysporum. The experiment in a line: Antifungal activity, growth inhibition in liquid phase (MIC). The following applies: summary of table 1. On the procedure:
The antifungal activity was determined by calculating the MIC (minimum inhibitory concentration) in a test of inhibition of Fusarium oxysporum growth in liquid phase, according to the protocol described by FELHBAUM et al. [J. Biol. Chem., 269: 33159-63, (1994)].
A series of successive doubling dilutions of the peptides is prepared as indicated above for determining the antibacterial activity.
80 μl of spores suspended (final concentration 10^4 spores/ml) in Potato Dextrose Broth medium (DIFCO) are added to 10 μl of peptide solution in sterile 96-well polypropylene microtitration plates. The final volume is adjusted to 100 μl by adding water. The growth inhibition is determined after incubation for 24 hours at 25° C. in the dark, by observation under a microscope and measurement of the increase in the OD600. The value of the MIC corresponds to a range (a-b) of peptide concentrations, in which (a) represents the highest concentration at which growth is observed, and (b) represents the lowest concentration which induces 100% growth inhibition.

Consider `CSCC[C@@H]1NC(=O)[C@H](CCCCN)NC(=O)CNC(=O)[C@@H]2CCCN2C(=O)[C@H](Cc2c[nH]cn2)NC(=O)[C@H](CC(C)C)NC(=O)[C@H](C(C)C)NC(=O)[C@H](CCCNC(=N)N)NC(=O)[C@@H]2CSSC[C@H](NC(=O)[C@H](C)NC(=O)[C@H](Cc3c[nH]cn3)NC(=O)[C@H](CO)NC(=O)[C@@H](N)Cc3c[nH]cn3)C(=O)N[C@@H]([C@@H](C)O)C(=O)N[C@@H](CO)C(=O)N[C@@H](Cc3ccc(O)cc3)C(=O)N[C@@H](Cc3c[nH]c4ccccc34)C(=O)N[C@H]3CSSC[C@H](NC1=O)C(=O)N[C@@H](C)C(=O)N[C@H]1CSSC[C@H](NC(=O)[C@H](Cc4ccccc4)NC(=O)[C@H](CCCCN)NC(=O)CNC3=O)C(=O)NCC(=O)N[C@@H]([C@@H](C)O)C(=O)N[C@@H](C)C(=O)N[C@@H](CO)C(=O)N[C@@H](CSSC[C@@H](C(=O)N[C@@H](CO)C(=O)N[C@@H](CCCNC(=N)N)C(=O)O)NC(=O)[C@H](Cc3c[nH]cn3)NC(=O)[C@H](C(C)C)NC1=O)C(=O)N[C@@H]([C@@H](C)O)C(=O)N[C@@H](Cc1c[nH]cn1)C(=O)N[C@@H](Cc1ccc(O)cc1)C(=O)N[C@@H](CC(C)C)C(=O)N2` [Myticin a] (H-HSHACTSYWCGKFCGTASCTHYLCRVLHPGKMCACVHCSR-OH; disulfide 5-24, 10-33, 14-35, 19-38; N-terminus and C-terminus assumed), for which the “Antiprotozoan activity (biological activity expressed in μM)” value in the assay on Perkinsus marinus is given as more than 20 μM.

As to `CC(C)C[C@@H]1NC(=O)[C@H](CCCCN)NC(=O)CNC(=O)[C@H](CCCNC(=N)N)NC(=O)[C@H](Cc2c[nH]cn2)NC(=O)[C@H](CC(C)C)NC(=O)[C@H](CC(N)=O)NC(=O)[C@H](CCCNC(=N)N)NC(=O)[C@@H]2CSSC[C@H](NC(=O)[C@@H](NC(=O)[C@H](Cc3c[nH]cn3)NC(=O)[C@@H]3CCCN3C(=O)[C@@H](N)Cc3c[nH]cn3)C(C)C)C(=O)N[C@@H]([C@@H](C)O)C(=O)N[C@@H](CO)C(=O)N[C@@H](Cc3ccc(O)cc3)C(=O)N[C@@H](Cc3ccc(O)cc3)C(=O)N[C@H]3CSSC[C@H](NC1=O)C(=O)N[C@@H](Cc1ccccc1)C(=O)N[C@H]1CSSC[C@H](NC(=O)[C@H](Cc4ccccc4)NC(=O)[C@H](CCCCN)NC(=O)[C@H](CO)NC3=O)C(=O)NCC(=O)N[C@@H]([C@@H](C)O)C(=O)N[C@@H](C)C(=O)NCC(=O)N[C@@H](CSSC[C@@H](C(=O)N[C@@H](CO)C(=O)N[C@@H](CCCNC(=N)N)C(=O)O)NC(=O)[C@H](Cc3c[nH]cn3)NC(=O)[C@H](CC(C)C)NC1=O)C(=O)N[C@@H]([C@@H](C)O)C(=O)N[C@@H](CCCNC(=N)N)C(=O)N[C@@H](Cc1ccc(O)cc1)C(=O)NCC(=O)N2` [Myticin b] (H-HPHVCTSYYCSKFCGTAGCTRYGCRNLHRGKLCFCLHCSR-OH; disulfide 5-24, 10-33, 14-35, 19-38; N-terminus and C-terminus assumed), the “Activity on Escherichia coli compared (in words)” value with Escherichia coli D31 is reported as “more active than the Myticin a peptide”. In addition, the “Activity on Micrococcus luteus (in words)” value with Micrococcus luteus is given as “more active than the Myticin a peptide”. Further, in the assay with Fusarium oxysporum, the “Activity on Fusarium oxysporum compared (in words)” value is given as “more active than the Myticin a peptide”. The “Antiprotozoan activity (biological activity expressed in μM)” value with Perkinsus marinus is listed as more than 20 μM.
